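Method: 48-hour compound exposure of cells in 96-well plates, five concentrations, linear interpolation of endpoints. The concentration for full growth arrest is given as TGI.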
Tests used:
Test in all cases: NCI-60 cell line screen, 48 h
ACHN renal = test system: ACHN renal
CAKI-1 renal = test system: CAKI-1 renal
CCRF-CEM leukemia = test system: CCRF-CEM leukemia
DLD-1 colon = test system: DLD-1 colon
HCT-116 colon = test system: HCT-116 colon
HT29 colon = test system: HT29 colon
M19-MEL melanoma = test system: M19-MEL melanoma
MALME-3M melanoma = test system: MALME-3M melanoma
OVCAR-4 ovarian = test system: OVCAR-4 ovarian
SK-OV-3 ovarian = test system: SK-OV-3 ovarian
SN12C renal = test system: SN12C renal
U251 CNS = test system: U251 CNS
XF 498 CNS = test system: XF 498 CNS
BT-549 breast = test system: BT-549 breast
DU-145 prostate = test system: DU-145 prostate
MDA-MB-435 = test system: MDA-MB-435
MDA-N = test system: MDA-N
NCI/ADR-RES ovarian = test system: NCI/ADR-RES ovarian
SK-MEL-2 melanoma = test system: SK-MEL-2 melanoma
SR leukemia = test system: SR leukemia

Compound | TGI (ACHN renal) [µM] | TGI (CAKI-1 renal) [µM] | TGI (CCRF-CEM leukemia) [µM] | TGI (DLD-1 colon) [µM] | TGI (HCT-116 colon) [µM] | TGI (HT29 colon) [µM] | TGI (M19-MEL melanoma) [µM] | TGI (MALME-3M melanoma) [µM] | TGI (OVCAR-4 ovarian) [µM] | TGI (SK-OV-3 ovarian) [µM] | TGI (SN12C renal) [µM] | TGI (U251 CNS) [µM] | TGI (XF 498 CNS) [µM] | TGI (BT-549 breast) [µM] | TGI (DU-145 prostate) [µM] | TGI (MDA-MB-435) [µM] | TGI (MDA-N) [µM] | TGI (NCI/ADR-RES ovarian) [µM] | TGI (SK-MEL-2 melanoma) [µM] | TGI (SR leukemia) [µM]
CC(C)OP(=O)(OC(C)C)c1nn(-c2ccc([N+](=O)[O-])cc2)c(=N)s1 | > 100 | > 100 | > 100 | > 100 | > 100 | > 100 | > 100 | > 100 | > 100 | > 100 | > 100 | > 100 | > 100 |  |  |  |  |  |  | 
O=c1cnn(C/C=C/CP(=O)(O)O)c(=O)[nH]1 | > 100 | > 100 |  |  |  |  |  | > 100 |  |  | > 100 | > 100 |  | > 100 | > 100 | > 100 | > 100 | > 100 | > 100 | > 100
OC12c3ccccc3C1CCCCCCCCCC21OCCCO1 (stereo not drawn) |  |  | > 100 | > 100 | > 100 | > 100 | > 100 | > 100 | > 100 | > 100 | > 100 |  | > 100 |  |  |  |  |  |  | > 100
COc1cccc(N2C(=O)CSC2c2c[nH]c3ccccc23)c1 (stereo not drawn) |  |  | > 100 |  | > 100 | > 100 |  |  | > 100 | > 100 | > 100 | > 100 |  | > 100 | > 100 | > 100 | > 100 |  |  | > 100
COC1C(=[N+]=[N-])C(=O)NC(=O)N1C1OC(COC(c2ccccc2)(c2ccccc2)c2ccccc2)C(O)C1O (stereo not drawn) | 38.3 | 56.1 | 41.6 | 37.3 | 34.9 | 35.3 | 39.5 | 33.8 | 27.8 | 49.6 | 32.7 | 35.5 |  |  |  |  |  |  | 38.4 | 
CCOC(=O)c1csc(NC(=O)CN2CCCCC2)n1 | > 100 | > 100 | > 100 |  |  | > 100 |  |  | > 100 | > 100 |  | > 100 |  |  | > 100 | > 100 | > 100 | > 100 | > 100 | 
